Reference: ChEMBL document CHEMBL1201862, “PubChem BioAssay data set” (2004)
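1) Cells in 96-well plates. 2) Compound, 48 h, 5 concentrations. 3) Linear interpolation between surrounding doses. 4) Unreached endpoint = highest concentration. At the GI50, growth is halved.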 Calls of active or inactive are those of the source. No stated cut-off is given here; in the data, active = GI50 up to about 1.1 µM and inactive = higher.

Columns and labels:
Experiment in all cases: NCI-60 cell line screen, 48 h
OVCAR-5 = test system: OVCAR-5
TK-10 = test system: TK-10
DU-145 = test system: DU-145
Malme-3M = test system: Malme-3M
T47D = test system: T47D
SK-MEL-5 = test system: SK-MEL-5
MDA-MB-435 = test system: MDA-MB-435
SK-MEL-28 = test system: SK-MEL-28
SF-539 = test system: SF-539
BT-549 = test system: BT-549
OVCAR-8 = test system: OVCAR-8
SNB-75 = test system: SNB-75
SK-OV-3 = test system: SK-OV-3
NCI-H23 = test system: NCI-H23
HCC 2998 = test system: HCC 2998
OVCAR-3 = test system: OVCAR-3
MDA-MB-231 = test system: MDA-MB-231
NCI-H226 = test system: NCI-H226
UACC-62 = test system: UACC-62
NCI/ADR-RES = test system: NCI/ADR-RES
Hs-578T = test system: Hs-578T
UACC-257 = test system: UACC-257
SNB-19 = test system: SNB-19
HCT-15 = test system: HCT-15
HT-29 = test system: HT-29
U-251 = test system: U-251
LOX IMVI = test system: LOX IMVI
UO-31 = test system: UO-31
M14 = test system: M14
MDA-N = test system: MDA-N
A549 = test system: A549
EKVX = test system: EKVX
CCRF-CEM = test system: CCRF-CEM
HL-60 = test system: HL-60
SW-620 = test system: SW-620
K562 = test system: K562
OVCAR-4 = test system: OVCAR-4
HCT-116 = test system: HCT-116
SN12C = test system: SN12C
NCI-H460 = test system: NCI-H460
COLO 205 = test system: COLO 205
CAKI-1 = test system: CAKI-1
SK-MEL-2 = test system: SK-MEL-2
NCI-H522 = test system: NCI-H522
RPMI-8226 = test system: RPMI-8226
MCF7 = test system: MCF7
SF-268 = test system: SF-268
MOLT-4 = test system: MOLT-4
RXF 393 = test system: RXF 393
SF-295 = test system: SF-295
KM12 = test system: KM12
A498 = test system: A498
PC-3 = test system: PC-3
SR = test system: SR
786-0 = test system: 786-0
ACHN = test system: ACHN
HOP-62 = test system: HOP-62
HOP-92 = test system: HOP-92
IGROV-1 = test system: IGROV-1

`c1ccc2cc(CN3CCC(C4CCN(Cc5ccc6ccccc6c5)CC4)CC3)ccc2c1` was tested, and the GI50 (OVCAR-5) was 10.1 µM (inactive), the GI50 (TK-10) was 3.82 µM (inactive) and the GI50 (DU-145) was 11.8 µM (inactive). The GI50 (Malme-3M) was 1.19 µM (inactive), the GI50 (T47D) was 4.76 µM (inactive) and the GI50 (SK-MEL-5) was 2.06 µM (inactive). For the same molecule, the GI50 (MDA-MB-435) was 1.75 µM (inactive), the GI50 (SK-MEL-28) was 1.87 µM (inactive) and the GI50 (SF-539) was 1.8 µM (inactive). For the same molecule, the GI50 (BT-549) was 10.3 µM (inactive), the GI50 (OVCAR-8) was 3.92 µM (inactive) and the GI50 (SNB-75) was 2.67 µM (inactive). The GI50 (SK-OV-3) was 10.1 µM (inactive), the GI50 (NCI-H23) was 11.4 µM (inactive) and the GI50 (HCC 2998) was 1.1 µM (active). For the same molecule, the GI50 (OVCAR-3) was 4.59 µM (inactive), the GI50 (MDA-MB-231) was 4.82 µM (inactive) and the GI50 (NCI-H226) was 11.4 µM (inactive). The GI50 (UACC-62) was 2.03 µM (inactive), the GI50 (NCI/ADR-RES) was 6.79 µM (inactive) and the GI50 (Hs-578T) was 2.49 µM (inactive). The GI50 (UACC-257) was 1.98 µM (inactive), the GI50 (SNB-19) was 11.5 µM (inactive) and the GI50 (HCT-15) was 3.18 µM. The GI50 (HT-29) was 1.52 µM (inactive), the GI50 (U-251) was 2.33 µM (inactive) and the GI50 (LOX IMVI) was 2.22 µM (inactive). The GI50 (UO-31) was 1.34 µM (inactive), the GI50 (M14) was 1.91 µM (inactive) and the GI50 (MDA-N) was 1.96 µM (inactive). The GI50 (A549) was 4.2 µM (inactive), the GI50 (EKVX) was 8.24 µM (inactive) and the GI50 (CCRF-CEM) was 4.06 µM (inactive). For the same molecule, the GI50 (HL-60) was 1.53 µM (inactive), the GI50 (SW-620) was 2.74 µM (inactive) and the GI50 (K562) was 0.692 µM (active). For the same molecule, the GI50 (OVCAR-4) was 6.21 µM (inactive), the GI50 (HCT-116) was 6.79 µM (inactive) and the GI50 (SN12C) was 21.8 µM (inactive). The GI50 (NCI-H460) was 3.11 µM (inactive), the GI50 (COLO 205) was 1.76 µM (inactive) and the GI50 (CAKI-1) was 5.53 µM (inactive). The GI50 (SK-MEL-2) was 2.18 µM (inactive), the GI50 (NCI-H522) was 1.89 µM (inactive) and the GI50 (RPMI-8226) was 2.48 µM (inactive). The GI50 (MCF7) was 2.06 µM (inactive), the GI50 (SF-268) was 8.53 µM (inactive) and the GI50 (MOLT-4) was 3.41 µM (inactive). For the same molecule, the GI50 (RXF 393) was 2.74 µM (inactive), the GI50 (SF-295) was 1.9 µM (inactive) and the GI50 (KM12) was 2.97 µM (inactive). The GI50 (A498) was 10.8 µM (inactive), the GI50 (PC-3) was 9.42 µM (inactive) and the GI50 (SR) was 3.24 µM (inactive). The GI50 (786-0) was 2.45 µM (inactive), the GI50 (ACHN) was 4.99 µM (inactive) and the GI50 (HOP-62) was 2.49 µM (inactive). For the same molecule, the GI50 (HOP-92) was 4.1 µM (inactive) and the GI50 (IGROV-1) was 6.4 µM (inactive).
For `COc1ccc(/C=C2\N=C(c3ccccc3)N(NC3=NC(=O)CC(=O)N3)C2=O)cc1`, the GI50 (OVCAR-5) was > 100 µM (inactive), the GI50 (TK-10) was > 100 µM (inactive) and the GI50 (DU-145) was > 100 µM (inactive). For the same molecule, the GI50 (Malme-3M) was > 100 µM (inactive), the GI50 (T47D) was > 100 µM (inactive) and the GI50 (SK-MEL-5) was > 100 µM (inactive). For the same molecule, the GI50 (MDA-MB-435) was > 100 µM (inactive), the GI50 (SK-MEL-28) was > 100 µM (inactive) and the GI50 (SF-539) was > 100 µM (inactive). The GI50 (BT-549) was > 100 µM (inactive), the GI50 (OVCAR-8) was > 100 µM (inactive) and the GI50 (SNB-75) was > 100 µM (inactive). For the same molecule, the GI50 (SK-OV-3) was > 100 µM (inactive), the GI50 (NCI-H23) was > 100 µM (inactive) and the GI50 (HCC 2998) was > 100 µM (inactive). For the same molecule, the GI50 (OVCAR-3) was > 100 µM (inactive), the GI50 (MDA-MB-231) was > 100 µM (inactive) and the GI50 (NCI-H226) was > 100 µM (inactive). The GI50 (UACC-62) was > 100 µM (inactive), the GI50 (NCI/ADR-RES) was > 100 µM (inactive) and the GI50 (Hs-578T) was > 100 µM (inactive). The GI50 (UACC-257) was > 100 µM (inactive), the GI50 (SNB-19) was > 100 µM (inactive) and the GI50 (HCT-15) was greater than 100 µM. The GI50 (HT-29) was > 100 µM (inactive), the GI50 (U-251) was > 100 µM (inactive) and the GI50 (UO-31) was > 100 µM (inactive). The GI50 (M14) was > 100 µM (inactive), the GI50 (MDA-N) was > 100 µM (inactive) and the GI50 (A549) was > 100 µM (inactive). The GI50 (CCRF-CEM) was 39.2 µM (inactive), the GI50 (HL-60) was > 100 µM (inactive) and the GI50 (SW-620) was > 100 µM (inactive). For the same molecule, the GI50 (K562) was > 100 µM (inactive), the GI50 (OVCAR-4) was > 100 µM (inactive) and the GI50 (HCT-116) was > 100 µM (inactive). The GI50 (SN12C) was > 100 µM (inactive), the GI50 (NCI-H460) was > 100 µM (inactive) and the GI50 (COLO 205) was > 100 µM (inactive). The GI50 (CAKI-1) was > 100 µM (inactive), the GI50 (SK-MEL-2) was > 100 µM (inactive) and the GI50 (NCI-H522) was > 100 µM (inactive). The GI50 (RPMI-8226) was > 100 µM (inactive), the GI50 (MCF7) was 20.4 µM (inactive) and the GI50 (SF-268) was > 100 µM (inactive). For the same molecule, the GI50 (MOLT-4) was > 100 µM (inactive), the GI50 (RXF 393) was > 100 µM (inactive) and the GI50 (KM12) was > 100 µM (inactive). The GI50 (A498) was > 100 µM (inactive), the GI50 (PC-3) was > 100 µM (inactive) and the GI50 (SR) was > 100 µM (inactive). The GI50 (786-0) was > 100 µM (inactive), the GI50 (ACHN) was > 100 µM (inactive) and the GI50 (HOP-62) was > 100 µM (inactive). For the same molecule, the GI50 (HOP-92) was > 100 µM (inactive) and the GI50 (IGROV-1) was > 100 µM (inactive).
For `Cc1cc2cc3c(C)cc(=O)oc3c(C)c2o1` [TRIOXSALEN], the GI50 (OVCAR-5) was > 100 µM (inactive), the GI50 (DU-145) was > 100 µM (inactive) and the GI50 (Malme-3M) was > 100 µM (inactive). The GI50 (T47D) was > 100 µM (inactive), the GI50 (SK-MEL-5) was > 100 µM (inactive) and the GI50 (MDA-MB-435) was > 100 µM (inactive). For the same molecule, the GI50 (SK-MEL-28) was > 100 µM (inactive), the GI50 (SF-539) was > 100 µM (inactive) and the GI50 (BT-549) was > 100 µM (inactive). The GI50 (OVCAR-8) was > 100 µM (inactive), the GI50 (SNB-75) was > 100 µM (inactive) and the GI50 (NCI-H23) was > 100 µM (inactive). The GI50 (HCC 2998) was > 100 µM (inactive), the GI50 (OVCAR-3) was > 100 µM (inactive) and the GI50 (MDA-MB-231) was > 100 µM (inactive). The GI50 (NCI-H226) was > 100 µM (inactive), the GI50 (UACC-62) was > 100 µM (inactive) and the GI50 (NCI/ADR-RES) was > 100 µM (inactive). The GI50 (Hs-578T) was > 100 µM (inactive), the GI50 (UACC-257) was > 100 µM (inactive) and the GI50 (SNB-19) was > 100 µM (inactive). For the same molecule, the GI50 (HCT-15) was greater than 100 µM, the GI50 (HT-29) was > 100 µM (inactive) and the GI50 (U-251) was > 100 µM (inactive). For the same molecule, the GI50 (LOX IMVI) was > 100 µM (inactive), the GI50 (UO-31) was > 100 µM (inactive) and the GI50 (M14) was > 100 µM (inactive). The GI50 (MDA-N) was > 100 µM (inactive), the GI50 (A549) was > 100 µM (inactive) and the GI50 (EKVX) was 90.6 µM (inactive). The GI50 (CCRF-CEM) was > 100 µM (inactive), the GI50 (HL-60) was > 100 µM (inactive) and the GI50 (SW-620) was > 100 µM (inactive). For the same molecule, the GI50 (K562) was > 100 µM (inactive), the GI50 (OVCAR-4) was > 100 µM (inactive) and the GI50 (HCT-116) was > 100 µM (inactive). For the same molecule, the GI50 (SN12C) was > 100 µM (inactive), the GI50 (NCI-H460) was > 100 µM (inactive) and the GI50 (COLO 205) was > 100 µM (inactive). For the same molecule, the GI50 (CAKI-1) was > 100 µM (inactive), the GI50 (SK-MEL-2) was > 100 µM (inactive) and the GI50 (NCI-H522) was > 100 µM (inactive). The GI50 (RPMI-8226) was > 100 µM (inactive), the GI50 (MCF7) was > 100 µM (inactive) and the GI50 (SF-268) was > 100 µM (inactive). For the same molecule, the GI50 (MOLT-4) was > 100 µM (inactive), the GI50 (RXF 393) was > 100 µM (inactive) and the GI50 (SF-295) was > 100 µM (inactive). For the same molecule, the GI50 (KM12) was > 100 µM (inactive), the GI50 (A498) was > 100 µM (inactive) and the GI50 (PC-3) was > 100 µM (inactive). The GI50 (SR) was > 100 µM (inactive), the GI50 (786-0) was > 100 µM (inactive) and the GI50 (ACHN) was > 100 µM (inactive). For the same molecule, the GI50 (HOP-62) was > 100 µM (inactive), the GI50 (HOP-92) was > 100 µM (inactive) and the GI50 (IGROV-1) was > 100 µM (inactive).
